Source: patent US9427468B2, “Compositions and methods for diagnosing and treating community-acquired methicillin-resistant Staphylococcus aureus” (priority 2007, dated 2016)
≈ marks a conversion by molar mass, not a printed value. Marks after values point to notes of the source that are not given here.

Columns and labels:
Type in all cases: cell-based, Staphylococcus aureus
[1] = tested on: MW2 ex Δpbp3/4; assay: MIC by microdilution (CLSI)
Excerpt: (§1) Experiments were first performed using mutants of various PBPs. In-frame deletion mutants of the genes encoding PBP3 (MW1504) and PBP4 (MW0604), pbp3 and pbp4 respectively, were generated in the CA-MRSA strain MW2 and in HA-MRSA strain COL using the temperature-sensitive allelic replacement vector pMAD (Arnaud, M. et al. 2004. Appl. Environ. Microbiol. 70:6887-6891). PBP4 was also deleted in the HA-MRSA strains Mu50 and N315 and in the CA-MRSA strain USA300. […] Minimum inhibitory concentrations (MICs) were determined according to the Clinical and Laboratory Standards Institute and are a standard method for defining antibiotic efficacy against different organisms. Bacteria, grown to an OD650=1, were added to cation-supplemented Mueller Hinton broth (CSMHB) to achieve a final concentration of 5×10^5 CFU/ml.
(§2) Minimum inhibitory concentrations and minimum bactericidal concentrations (MIC and MBC, respectively) were determined for each isolate in triplicate by microdilution techniques with an inoculum of 5×10^5 CFU/ml according to the Clinical and Laboratory Standards Institute guidelines. Aliquots (5 μl) from clear wells were plated onto TSA drug-free plates for the determination of MBCs, followed by incubation at 37° C. for 24 and 48 hours. For the mutant strains, each one of the three clones was tested. MIC data were reported as median values from at least three independent experiments for each antibiotic. Also, strains containing pEPSA5-based plasmids were tested with and without xylose induction, but chloramphenicol was not added to avoid interference with beta-lactam resistance evaluation. […] The correct inocula were confirmed by plating serial dilutions on agar.

[2] = tested on: Mu50 wild-type; assay: MIC by microdilution (CLSI)
Excerpt: as §1, §2

[3] = tested on: CA-MRSA Strains (30 clinical isolates); assay: MIC and synergy assay, clinical isolates
Excerpt: (§3) Analysis of the Type IV SCCmec element, virtually identical between MW2 and USA300, allowed for identification of four genes conserved in the CA-MRSA background, but not in other known MRSA genomes. These four genes therefore served as biomarkers that could be used to distinguish CA-MRSA strains from HA-MRSA strains. PCR of chromosomal DNAs with oligonucleotides specific for mecA, pvl (Lina, G. et al. 1999. Clin. Infect. Dis. 29:1128-1132) and the four specific genes for CA-MRSAs (MW0042/USA300_0041; MW0043/USA300_0042; MW0046/USA300_0045; and MW0047/USA300_0046) identified 30 isolates positive for these genes. […] The code was subsequently broken, confirming that all 30 isolates, designated as CA-MRSA, were from patients with primary skin infections and annotated by the donating hospital as CA-MRSA while the other were blood isolates designated as HA-MRSA. […] The synergistic inhibitory activity of the combined treatment also was further tested on 30 MRSA isolates from complicated skin and soft tissue infections, with CA-MRSA being the most common etiologic agent.
(§4) Two independent batches of clinical isolates were obtained from the Dartmouth Hitchcock Medical Center, Lebanon, N.H. The first group included 200 blood MRSA isolates sub-cultured on 5% Columbia sheep blood agar (Remel). The second group involved 30 MRSA isolates from complicated skin and soft tissue infections (CSSTI) similarly sub-cultured. All strains were grown overnight in CSMHB broth and streaked on selective mannitol salt agar plates for confirmation. DNA extraction was performed on 500 μl of cultures. PCR was performed on all DNAs with oligonucleotides specific for mecA, pvl and the four genes found to be specific for the SCCmec type IV in CA-MRSA: MW0042, MW0043, MW0046, and MW0047. DNA amplification of mecA was used as a control to confirm that all strains were MRSA. DNAs from S. epidermidis, E. coli and S. pneumoniae were used as negative controls to confirm the specificity of the oligonucleotides. After amplification for 30 cycles (5 min of denaturation at 95° C., 30 s of annealing at 54° C. and 1 min extension at 72° C.), PCR products were resolved by electrophoresis through 1.5% agarose gels stained with ethidium bromide. Given the number of clinical isolates tested, only a small random group of PCR products were subjected to DNA sequencing to confirm specificity. S. aureus strain COL, Mu50, N315 and MRSA252 all tested negative for all MW0042, MW0043 and MW0047 and pvl while USA300 and MW2 were positive controls for this PCR reaction. The primer sequences for mecA, MW0042, MW0043 and MW0047 were as follows: mecA-UP 5′-GGTACTGCTATCCACCCTCAAA-3′ (SEQ ID NO:19), mecA-LOW 5′-TTACGACTTGTTGCATACCATCA-3′ (SEQ ID NO:20), MW0042-UP 5′-ATTGGCAGAAATAAACAAAACG-3′ (SEQ ID NO:21), MW0042-LOW 5′-TCGTTTAATTTTTTCCCAAACTC-3′ (SEQ ID NO:22), MW0043-UP 5′-GTTTCAGTTGGTGTTGAAGATCC-3′ (SEQ ID NO:23), MW0043-LOW 5′-CCTATAATTTTCGATAGATTCGTG-3′ (SEQ ID NO:24), MW0047-UP 5′-AGGCATATAAAGAAGCAGGAAAG-3′ (SEQ ID NO:25), MW0047-LOW 5′-CACACTGTTTTCCTACGATATTTG-3′ (SEQ ID NO:26).
as §2, with “agar. […]” for “agar.”

[4] = tested on: CA-MRSA from CSSTI (30 isolates); assay: MIC and synergy assay, clinical isolates
Excerpt: as §3, §4
as §2, with “agar. […]” for “agar.”

[5] = tested on: HA-MRSA Strains (30 clinical isolates); assay: MIC and synergy assay, clinical isolates
Excerpt: as §3, §4
as §2, with “agar. […]” for “agar.”

[6] = Staphylococcus aureus, read-out: MICs
[7] = Staphylococcus aureus, MRSA, 48 h, read-out: MICs 48 hr

| SMILES | MIC [1, 6] [µg/mL] | MIC [2, 6] [µg/mL] | MIC [3, 7] [µg/mL] | MIC [4, 7] [µg/mL] | MIC [5, 7] [µg/mL] | MICs ([1]; Table 1, MW2 ex Δpbp3/4) [µg/mL] | MICs 48 hr ([2]; Mu50, 48 hr, for combination: MIC of oxacillin with ¼ MIC cefoxitin) [µg/mL] | MICs ([2]; Table 1, Mu50 wild-type) [µg/mL] | MICs 48 hr ([3]; 30 CA-MRSA clinical isolates, median values, 48 hr) | MICs 48 hr ([4]; 30 CSSTI isolates, median values, 48 hr) | MICs 48 hr ([5]; 30 HA-MRSA clinical isolates, median values, 48 hr) |
| --- | --- | --- | --- | --- | --- | --- | --- | --- | --- | --- | --- |
| CO[C@@]1(NC(=O)Cc2cccs2)C(=O)N2C(C(=O)O)=C(COC(N)=O)CS[C@@H]21 [CX, cefoxitin] | 32 (≈ 74.9 µM) | 256 (≈ 599 µM) | 64 | 64 | 128 | – | – | – | – | – | – |
| Cc1onc(-c2ccccc2)c1C(=O)N[C@@H]1C(=O)N2[C@@H]1SC(C)(C)[C@@H]2C(=O)O [OX, oxacillin] | – | – | – | – | – | 1 | 256 | 256 | 64^b μg/ml | 64^b μg/ml | 256^b μg/ml |
